# From US20260232763A1 (Kadmon Corporation, LLC, priority 2023, published 2026)
# Where “and” joins values, the source holds several entries; their conditions need not be identical. Equal values may be shown once. Read-outs that look alike come from different tables or passages of the source.
# How the values were obtained:
# clinical = conditions: male, human, in vivo
# Protocol: On Day 10, the victim and perpetrator IMPs were administered simultaneously.
# On the evening before each dose, participants were provided with a light snack and were required to fast from all food and drink (except water) for a minimum of 10 hours until the following morning. All study interventions were administered in the fed state, following completion of a standard breakfast (with dosing planned to occur 30 minutes after the start of the breakfast).
# The PK parameters underwent a natural logarithmic transformation and were analyzed using a mixed effect modelling technique. Adjusted geometric mean ratios and 90% confidence intervals (CIs) of the ratios were obtained for each comparison. The ratio was defined as test/reference. In addition, the intraparticipant variability were also presented. […] No formal interim analyses were performed for this study.
# [1] = tested on: human […]1-acid glycoprotein; conditions: in vitro; cited from earlier work
# P-gp = P-gp (Homo sapiens, UniProt P08183); conditions: in vitro, cited from earlier work
# [2] = healthy subjects, cited from earlier work
# [3] = healthy subjects, cited from earlier work; remark: listed apart in the source
# solubility = format: physicochemical; conditions: in vitro assessments
# CYP3A4 = CYP3A4 (Homo sapiens, UniProt P08684); assay: in vitro metabolism; format: in vitro ADME; conditions: in vitro assessments
# pregnant rabbits = conditions: cited from earlier work
# pregnant rats = conditions: cited from earlier work
# BCRP = biological target: T1, BCRP (Homo sapiens, UniProt Q9UNQ0); conditions: in vitro, at clinically relevant concentrations; cited from earlier work
# T1 sequence (Q9UNQ0 1-655): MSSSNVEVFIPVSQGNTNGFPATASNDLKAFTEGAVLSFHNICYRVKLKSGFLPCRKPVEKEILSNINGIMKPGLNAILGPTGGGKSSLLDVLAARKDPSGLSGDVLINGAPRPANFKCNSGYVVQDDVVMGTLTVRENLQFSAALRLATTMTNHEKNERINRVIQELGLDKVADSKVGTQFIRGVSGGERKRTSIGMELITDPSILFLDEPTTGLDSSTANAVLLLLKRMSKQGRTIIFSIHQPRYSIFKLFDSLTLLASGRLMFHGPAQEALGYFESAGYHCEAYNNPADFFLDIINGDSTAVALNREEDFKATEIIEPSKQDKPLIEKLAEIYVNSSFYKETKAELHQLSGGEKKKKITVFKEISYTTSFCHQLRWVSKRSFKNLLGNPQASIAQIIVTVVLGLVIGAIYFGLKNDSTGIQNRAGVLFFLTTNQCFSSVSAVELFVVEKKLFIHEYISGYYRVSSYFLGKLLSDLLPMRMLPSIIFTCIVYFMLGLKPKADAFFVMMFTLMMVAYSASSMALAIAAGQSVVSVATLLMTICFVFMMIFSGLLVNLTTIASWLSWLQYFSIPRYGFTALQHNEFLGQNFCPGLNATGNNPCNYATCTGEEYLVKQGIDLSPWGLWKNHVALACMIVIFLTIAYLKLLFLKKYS
# rats = conditions: oral; cited from earlier work
# [4] = tested on: human peripheral blood lymphocytes (HPBL); conditions: chromosome aberration; cited from earlier work
# UGT1A9 = biological target: T2, UGT1A9 (Homo sapiens, UniProt O60656); conditions: in vitro; cited from earlier work
# T2 sequence (O60656 26-530): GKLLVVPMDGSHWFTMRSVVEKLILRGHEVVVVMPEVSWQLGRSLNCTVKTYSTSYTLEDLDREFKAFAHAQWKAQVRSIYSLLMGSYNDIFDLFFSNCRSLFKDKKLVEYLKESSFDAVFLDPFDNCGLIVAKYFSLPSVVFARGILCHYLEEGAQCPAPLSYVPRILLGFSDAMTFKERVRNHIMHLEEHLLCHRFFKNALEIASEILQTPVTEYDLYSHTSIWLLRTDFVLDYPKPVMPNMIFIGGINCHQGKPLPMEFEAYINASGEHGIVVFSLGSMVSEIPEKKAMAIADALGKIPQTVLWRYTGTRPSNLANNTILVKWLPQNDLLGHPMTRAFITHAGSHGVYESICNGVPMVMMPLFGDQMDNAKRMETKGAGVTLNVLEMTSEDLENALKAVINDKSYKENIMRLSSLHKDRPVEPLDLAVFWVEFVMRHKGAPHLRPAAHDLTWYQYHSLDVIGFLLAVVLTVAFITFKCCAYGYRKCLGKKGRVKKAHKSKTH
# [5] = coadministration of rabeprazole
# [6] = single oral dose of radiolabeled belumosudil
# Sequence of P-gp (P08183 whole entry): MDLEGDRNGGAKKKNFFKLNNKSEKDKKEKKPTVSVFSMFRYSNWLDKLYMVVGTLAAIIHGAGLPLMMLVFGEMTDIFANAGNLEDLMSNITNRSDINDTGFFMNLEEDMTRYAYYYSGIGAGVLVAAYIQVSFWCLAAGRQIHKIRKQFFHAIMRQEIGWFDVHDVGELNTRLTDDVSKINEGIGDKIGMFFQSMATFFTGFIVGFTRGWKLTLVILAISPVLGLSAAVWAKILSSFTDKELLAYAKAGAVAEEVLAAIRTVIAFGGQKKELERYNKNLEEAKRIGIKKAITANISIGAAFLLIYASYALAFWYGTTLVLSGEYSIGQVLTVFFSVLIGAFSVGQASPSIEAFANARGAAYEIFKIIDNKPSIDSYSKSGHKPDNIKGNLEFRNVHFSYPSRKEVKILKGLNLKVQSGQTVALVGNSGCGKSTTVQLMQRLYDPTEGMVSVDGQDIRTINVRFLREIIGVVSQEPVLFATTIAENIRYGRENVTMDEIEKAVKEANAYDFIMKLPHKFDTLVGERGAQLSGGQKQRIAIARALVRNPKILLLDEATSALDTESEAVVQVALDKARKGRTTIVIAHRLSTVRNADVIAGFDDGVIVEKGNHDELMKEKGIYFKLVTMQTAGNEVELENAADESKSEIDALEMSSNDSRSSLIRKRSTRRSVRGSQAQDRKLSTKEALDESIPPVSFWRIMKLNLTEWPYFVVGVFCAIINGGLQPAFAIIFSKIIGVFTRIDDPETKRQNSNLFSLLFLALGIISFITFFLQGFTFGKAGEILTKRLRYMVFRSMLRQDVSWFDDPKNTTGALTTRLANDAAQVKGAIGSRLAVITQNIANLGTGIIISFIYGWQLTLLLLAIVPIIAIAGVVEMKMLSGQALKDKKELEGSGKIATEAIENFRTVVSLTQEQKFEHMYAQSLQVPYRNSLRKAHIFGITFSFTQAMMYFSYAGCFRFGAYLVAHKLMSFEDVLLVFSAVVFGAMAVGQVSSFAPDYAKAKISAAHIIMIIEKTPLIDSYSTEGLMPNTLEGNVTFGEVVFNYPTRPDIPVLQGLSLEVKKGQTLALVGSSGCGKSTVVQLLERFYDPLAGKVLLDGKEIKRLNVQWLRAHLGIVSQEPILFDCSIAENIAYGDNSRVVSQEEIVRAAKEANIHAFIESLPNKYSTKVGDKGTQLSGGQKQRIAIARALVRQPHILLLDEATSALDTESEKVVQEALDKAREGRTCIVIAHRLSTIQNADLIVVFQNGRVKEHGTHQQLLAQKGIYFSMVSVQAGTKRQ
# Sequence of CYP3A4 (P08684 whole entry): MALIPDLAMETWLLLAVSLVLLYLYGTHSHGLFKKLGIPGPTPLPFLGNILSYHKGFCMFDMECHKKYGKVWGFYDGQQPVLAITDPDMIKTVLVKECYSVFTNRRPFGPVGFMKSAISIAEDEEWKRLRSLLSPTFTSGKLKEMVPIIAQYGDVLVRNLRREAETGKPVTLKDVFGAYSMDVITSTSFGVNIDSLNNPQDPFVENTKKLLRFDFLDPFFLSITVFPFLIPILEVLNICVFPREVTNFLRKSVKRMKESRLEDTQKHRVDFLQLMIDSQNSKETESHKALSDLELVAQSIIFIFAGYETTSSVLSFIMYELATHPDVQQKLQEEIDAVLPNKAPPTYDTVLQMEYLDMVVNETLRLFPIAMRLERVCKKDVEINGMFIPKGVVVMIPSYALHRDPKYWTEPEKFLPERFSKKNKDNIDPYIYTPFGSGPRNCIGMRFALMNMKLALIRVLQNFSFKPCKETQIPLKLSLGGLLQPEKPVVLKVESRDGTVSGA
compound,measurement,setting,value
"CC(C)NC(=O)COc1cccc(-c2nc(Nc3ccc4[nH]ncc4c3)c3ccccc3n2)c1 [belumosudil, 2-{3-[4-(1H-indazol-5-ylamino)-2-quinazolinyl]phenoxy}-N-(propan-2-yl) acetamide]",Tmax,clinical,1.5 to 2 h
same,increase of exposures (Cmax and AUC) following multiple dosing,clinical,1.21-1.57 fold
same,"AUC(0-last), geometric mean",clinical; 200 mg,9710 ng·h/mL
same,"AUC(0-tau), geometric mean",clinical; 200 mg,9710 ng·h/mL
same,"Cmax, geometric mean",clinical; 200 mg,2080 ng/mL
same,"T1/2, geometric mean",clinical; 200 mg,4.901 h
same,half-life,clinical; 200 mg,~5 h
same,binding to human […]1-acid glycoprotein,[1],98.6%
same,P-gp inhibition,P-gp; at clinically relevant concentrations,inhibits
same,P-gp substrate status,P-gp,substrate of P-gp
same,effect on belumosudil exposure,[2]; coadministered with itraconazole,no clinically meaningful effect
same,decrease of AUC,[2]; coadministration of omeprazole,47%
same,decrease of Cmax,[2]; coadministration of omeprazole,68%
same,decrease of AUC,[2]; [5],80%
same,decrease of Cmax,[2]; [5],87%
same,decrease of AUC,[2]; coadministration of rifampin,72%
same,decrease of Cmax,[2]; coadministration of rifampin,59%
same,AUC increase with high-fat and high-calorie meal compared to fasted state,[3]; single dose,2 times
same,Cmax increase with high-fat and high-calorie meal compared to fasted state,[3]; single dose,2.2 times
same,radioactivity recovered in feces,[3]; [6],85%
same,radioactivity recovered in feces as unchanged,[3]; [6],30%
same,radioactivity recovered in urine,[3]; [6],less than 5%
same,solubility,solubility,pH dependent
same,metabolism,CYP3A4,primarily dependent on cytochrome P450 CYP3A4 activity
same,"maternal exposures (AUC) with adverse developmental outcomes, times the human exposure (AUC) at the recommended dose","pregnant rabbits; pregnant rabbits, period of organogenesis",≥ 0.07 times
same,dose with embryo-fetal effects,"pregnant rabbits; rabbits, oral",≥ 50 mg/kg/day
same,dose with maternal toxicity (body weight loss and mortality),"pregnant rabbits; rabbits, oral",≥ 125 mg/kg/day
same,"maternal exposures (AUC) with adverse developmental outcomes, times the human exposure (AUC) at the recommended dose","pregnant rats; pregnant rats, period of organogenesis",≥ 3 times
same,dose with fetal malformations,"pregnant rats; rats, oral, pilot study",≥ 50 mg/kg/day
same,dose with maternal toxicity (reduced body weight gain),"pregnant rats; rats, oral, pilot study",150 mg/kg/day and 300 mg/kg/day
same,BCRP inhibition,BCRP,inhibits
same,dose with abnormal sperm findings and testes/epididymis organ changes in male rats,rats,275 mg/kg/day
same,"dose with adverse findings in female rats (increased pre- or post-implantation loss, decreased number of viable embryos)",rats,275 mg/kg/day
same,dose with reduced fertility in treated males or females,rats,275 mg/kg/day
same,genotoxicity,[4],not genotoxic
same,UGT1A9 inhibition,UGT1A9,inhibitor
